Experimental findings from patent US6531148B1, “Therapeutic agents” (Takara Shuzo Co., Ltd., priority 1998, dated 2003) are described below.

Assay [1] relates to inducible NO synthase (iNOS). Nature of the assay: iNOS expression (RT-PCR, Western blotting). In kind it is cell-based. As to conditions: RAW264.7 cells cultured for 4, 6 or 8 hours. On the procedure:
The present inventors have confirmed that the compound of formula (I), the compound of formula (II) and salts thereof inhibit the expression of iNOS. The confirmation was carried out at protein level by using Western blotting and at messenger RNA level by using RT-PCR. […] Therefore, the compound is effective in treating and preventing diseases that require inhibition of NO production for their treatment and prevention.
RNA was prepared from RAW264.7 cells cultured for 4, 6 or 8 hours under conditions similar to those described above. The amount of mRNA encoding inducible NO synthase [iNOS; Biochem. Byophys. Res. Commun., 215:148-153 (1995)] contained in the RNA was determined by the RT-PCR method.
(A western blot detects proteins with antibodies after separation by electrophoresis.)

Assay [2] concerns the target T1, α-glucosidase from rat small intestine mucous membrane (Rattus norvegicus, UniProt P23739).
T1 construct: relative activity; other: substrate Sucrose, DGE 0.2 mM; control without DGE = 100%; relative activity; other: substrate Sucrose, DGE 0.5 mM; other: substrate Sucrose, DGE 1.0 mM; other: substrate Sucrose, DGE 2.0 mM; other: for sucrose, Dixon
Nature of the assay: α-Glucosidase inhibition test (crude enzyme from rat small intestine). In kind it is biochemical. To be noted: for relative activity: substrate Sucrose, control without DGE = 100%. On the procedure:
(2) A crude enzyme preparation of α-glucosidase from rat small intestine mucous membrane [prepared according to the method as described in Arne Dahlqvist, Anal. Biochem., 7:18-25 (1964)] was used to measure the activity of inhibiting α-glucosidase of DGE as follows.
For the enzymatic reaction, 80 μl of a solution of sucrose, maltose, treharose or soluble starch as a substrate in 10 mM phosphate buffer (pH 7.0) buffer at a final concentration of 100 mM (0.5% for soluble starch) was added to 10 μl of a test sample solution appropriately diluted with the same buffer. 10 μl of the crude enzyme solution prepared from rat small intestine was added thereto. The mixture was reacted at 37° C. for 20 minutes.
The enzymatic reaction was assessed by adding 3 ml of a reagent for glucose measurement (Wako Pure Chemical Industries) to the reaction mixture, reacting at 37° C. for 5 minutes and then measuring the absorbance at 505 nm as the glucose content in the mixture.
The inhibitory activity of DGE on the digestion of each substrate by α-glycosidase was measured using DGE at four different concentrations according to the above-mentioned method. The activity of inhibiting α-glycosidase was expressed as a relative activity (%) defining the activity of the control without DGE as 100%.

The test system of another assay is spleen lymphocytes. Nature of the assay: Lymphocyte activation inhibition test. In kind it is cell-based, mouse. As to conditions: 3H-thymidine uptake. From the text: A ddY mouse (female, 7 weeks old, weighing about 25 g) was purchased from Nippon SLC and pre-bred for 1 week before using in experiments. A spleen was taken out from the mouse, finely minced and suspended in RPMI-1640 medium containing 10% fetal bovine serum (HyClone) to obtain a single cell suspension. Adhesive cells adhered to a plastic Petri dish were removed and non-adhesive cells were used as spleen lymphocytes. The spleen lymphocytes were suspended in RPMI 1640 medium containing 10% fetal bovine serum at a concentration of 2×10^6/ml. 200 μl of the suspension was seeded into each well of a 96-well microtiter plate. DGE at a varying concentration was added to each well other than the control well. Furthermore, 5 μg of Con A (Nacalai Tesque) was added to each well. The plate was incubated at 37° C. for two days in the presence of 5% CO2. 37 kBq of ^3H-thymidine (Daiichi Pure Chemicals) was added to each well to pulse-label the cells on the day before the completion of the cultivation. After cultivation, the cells were harvested on a glass filter to measure the radioactivity.

pKi: −log10 of the molar value.

T1 sequence (P23739 whole entry): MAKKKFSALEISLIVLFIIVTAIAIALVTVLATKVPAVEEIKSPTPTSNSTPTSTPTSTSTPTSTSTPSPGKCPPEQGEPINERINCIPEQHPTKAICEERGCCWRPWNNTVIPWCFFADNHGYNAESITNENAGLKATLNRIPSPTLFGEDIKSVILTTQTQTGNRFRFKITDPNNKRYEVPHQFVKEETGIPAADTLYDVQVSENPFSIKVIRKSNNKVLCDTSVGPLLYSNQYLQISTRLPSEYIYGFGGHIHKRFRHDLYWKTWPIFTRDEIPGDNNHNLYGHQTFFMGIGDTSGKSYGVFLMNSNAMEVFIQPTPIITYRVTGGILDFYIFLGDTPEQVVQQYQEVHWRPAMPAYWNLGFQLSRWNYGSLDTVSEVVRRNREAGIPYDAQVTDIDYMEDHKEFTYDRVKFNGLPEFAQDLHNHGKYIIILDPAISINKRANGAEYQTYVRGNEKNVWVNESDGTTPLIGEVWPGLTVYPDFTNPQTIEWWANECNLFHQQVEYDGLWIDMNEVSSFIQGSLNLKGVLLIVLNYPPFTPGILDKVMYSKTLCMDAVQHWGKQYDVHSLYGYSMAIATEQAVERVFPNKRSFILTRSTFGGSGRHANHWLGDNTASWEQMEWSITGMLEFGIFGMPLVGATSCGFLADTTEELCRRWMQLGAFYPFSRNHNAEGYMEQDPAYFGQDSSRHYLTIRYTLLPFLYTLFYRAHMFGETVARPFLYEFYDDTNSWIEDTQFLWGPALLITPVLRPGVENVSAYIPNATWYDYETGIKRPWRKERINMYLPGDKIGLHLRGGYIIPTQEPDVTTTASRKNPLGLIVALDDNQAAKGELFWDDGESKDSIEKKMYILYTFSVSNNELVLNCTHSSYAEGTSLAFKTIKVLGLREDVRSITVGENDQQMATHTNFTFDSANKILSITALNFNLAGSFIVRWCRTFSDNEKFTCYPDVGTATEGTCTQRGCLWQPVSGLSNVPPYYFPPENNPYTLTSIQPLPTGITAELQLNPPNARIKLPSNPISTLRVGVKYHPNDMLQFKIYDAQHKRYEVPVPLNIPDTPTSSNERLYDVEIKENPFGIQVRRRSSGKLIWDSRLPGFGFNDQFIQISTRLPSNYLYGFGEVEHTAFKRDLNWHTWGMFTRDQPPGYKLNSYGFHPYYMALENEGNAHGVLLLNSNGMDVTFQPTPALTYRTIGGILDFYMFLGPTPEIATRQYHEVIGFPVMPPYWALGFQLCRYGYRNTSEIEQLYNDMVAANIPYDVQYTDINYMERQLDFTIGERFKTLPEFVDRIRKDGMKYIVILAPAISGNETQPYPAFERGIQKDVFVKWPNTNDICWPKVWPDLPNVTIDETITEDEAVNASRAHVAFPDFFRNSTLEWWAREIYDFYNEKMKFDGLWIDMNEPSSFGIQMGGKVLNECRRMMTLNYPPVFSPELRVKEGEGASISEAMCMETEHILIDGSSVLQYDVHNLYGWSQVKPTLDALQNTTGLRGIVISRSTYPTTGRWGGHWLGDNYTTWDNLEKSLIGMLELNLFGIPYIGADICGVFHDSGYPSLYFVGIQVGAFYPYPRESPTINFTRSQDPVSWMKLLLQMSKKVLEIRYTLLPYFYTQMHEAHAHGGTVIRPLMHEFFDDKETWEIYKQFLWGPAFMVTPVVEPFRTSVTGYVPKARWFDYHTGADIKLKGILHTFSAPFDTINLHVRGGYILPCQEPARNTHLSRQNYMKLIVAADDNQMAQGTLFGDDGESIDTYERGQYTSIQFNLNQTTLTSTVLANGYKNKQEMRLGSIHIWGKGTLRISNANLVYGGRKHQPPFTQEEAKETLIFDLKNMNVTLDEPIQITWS

Regarding `O=C1C=CC(CO)OC1O` [DGE, L-glycero-1,5-epoxy-1αβ,6-dihydroxy-cis-hex-3-en-2-one], in assay [1], the “amplification of a DNA fragment from the iNOS mRNA” value is given as “no amplification of the fragment was observed”. Further, the “activity of inhibiting α-glycosidase with sucrose as a substrate compared with maltose or the like” value in assay [2] is listed as “exhibited a higher activity of inhibiting α-glycosidase”. Besides, the negative logarithm of the Ki (pKi) in assay [2] (for sucrose, Dixon plot, read-out: inhibition constant (Ki)) was 2.22. Further, the relative activity turned out to be 91% in assay [2] (DGE 0.2 mM), 92% in assay [2] (DGE 0.5 mM), 83% in assay [2] (DGE 1.0 mM) and 71% in assay [2] (DGE 2.0 mM). Besides, the “inhibitory activity against lymphocyte proliferation activated by stimulation with mitogen” value in the assay with spleen lymphocytes (Con A) is “in a dose-dependent manner”. Moreover, the “concentration that almost completely inhibits the proliferation” value in the assay on spleen lymphocytes (Con A-stimulated spleen lymphocytes) was found to be 0.3 µg/mL.

As usually defined, the pKi is the Ki on a negative log10 scale, so that one unit is a factor of ten.
